# Data published in PubChem BioAssay (NCI).
#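 In this assay, cells in 96-well plates receive the compound at five concentrations for 48 hours. Endpoints are linearly interpolated between the surrounding concentrations. TGI: total growth inhibition.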
# Tested on: COLO 205 colon
# Experiment: inhibition of tumour cell growth, NCI panel, 48 h
row,SMILES,TGI
1,CSc1ncnc2c1ncn2CCC#N,> 100 µM
2,COc1cccc(/C=N/n2c(C)n[nH]c2=O)c1,> 100 µM
3,CC1CCCC(CC(=O)O)(CC(=O)O)C1 (stereo not given),> 100 µM
4,CC(=O)OCC1OC(n2c3c(cc(C#N)c2=S)CCCCC3)C(OC(C)=O)C(OC(C)=O)C1OC(C)=O (stereo not given),> 100 µM
5,CCC(=O)ONC(=O)Cn1ccc([N+](=O)[O-])n1,> 100 µM
6,O=C(O)c1ccc(OCc2nc3cc(C(F)(F)F)ccc3nc2-c2ccccc2)cc1,37.8 µM
7,COc1ccc(/C=C2\N=C(SC)NC2=O)cc1,> 100 µM
8,CC(C)NC(=O)OCCN=c1c2ccccc2ccc2ccccc12,> 100 µM
9,O=c1oc2ccc([N+](=O)[O-])cc2c(Nc2ccc3c(c2)Oc2ccccc2O3)c1[N+](=O)[O-],40.2 µM
10,On1c(-c2ccccc2)nc2ccccc2c1=S,> 100 µM
11,Cn1c2ccccc2c(=O)c2cccc(C(=O)NC(CCCN=C(N)N)C(=O)O)c21 (stereo not given),> 100 µM
12,C=C1CN2CC(=C)CN(C1)CS(=O)(=O)N1CC(=C)CN(CC(=C)C1)S(=O)(=O)N1CC(=C)CN(CC(=C)C1)S(=O)(=O)C2,> 100 µM
13,O=C(O)/C=c1/c2ccccc2n2nc3ccccc3c12,33.5 µM
14,Nc1ccc(S2(c3ccc(N)cc3)C=C(c3ccccc3)C(c3ccccc3)=C2)cc1,> 100 µM
15,COc1ccc2c(cnc3c4cc(OC)c(OC)cc4ccc23)c1,> 100 µM
16,O=C1C(=Cc2ccccc2O)N=C(c2ccccc2)N1n1c(-c2ccccc2)nc2ccccc2c1=O,> 100 µM
17,CC(C)=CCNc1ncnc2c1ncn2CCC#N,> 100 µM

# Tested on: KM12 colon
# Experiment: inhibition of tumour cell growth, NCI panel, 48 h
row,SMILES,TGI
1,C=C1C(=O)C=C[C@]2(C)CC[C@H]3C(=C)C(=O)O[C@@H]3[C@@H]12,3.53 µM
2,COc1ccc(C2OC(c3ccncc3)=NN2C)cc1OC (stereo not given),> 100 µM
3,COC1C=COC2(C)Oc3c(C)c(O)c4c(O)c(c(C5SCCS5)c(O)c4c3C2=O)NC(=O)C(C)=C/C=C\C(C)C2OC(C)(C)OC(C2C)C(C)C(OC(C)=O)C1C (stereo not given),> 100 µM
4,CC(C)(C)C(=O)CC1=Nc2ccccc2SC1(O)CC(=O)C(C)(C)C (stereo not given),> 100 µM
5,N#CC1=C(N)N(c2ccccc2)C(c2ccccc2)C1(C#N)C#N (stereo not given),30.9 µM
6,CCOC(=O)NC(Nc1ccc([N+](=O)[O-])cc1)(C(F)(F)F)C(F)(F)F,> 100 µM
7,CSc1ncnc2c1ncn2CCC#N,> 100 µM
8,COc1cccc(/C=N/n2c(C)n[nH]c2=O)c1,> 100 µM
9,CC1CCCC(CC(=O)O)(CC(=O)O)C1 (stereo not given),> 100 µM
10,CC(=O)OCC1OC(n2c3c(cc(C#N)c2=S)CCCCC3)C(OC(C)=O)C(OC(C)=O)C1OC(C)=O (stereo not given),> 100 µM
11,CCC(=O)ONC(=O)Cn1ccc([N+](=O)[O-])n1,> 100 µM
12,O=C(O)c1ccc(OCc2nc3cc(C(F)(F)F)ccc3nc2-c2ccccc2)cc1,> 100 µM
13,COc1ccc(/C=C2\N=C(SC)NC2=O)cc1,> 100 µM
14,CC(C)NC(=O)OCCN=c1c2ccccc2ccc2ccccc12,> 100 µM
15,O=c1oc2ccc([N+](=O)[O-])cc2c(Nc2ccc3c(c2)Oc2ccccc2O3)c1[N+](=O)[O-],> 100 µM
16,On1c(-c2ccccc2)nc2ccccc2c1=S,> 100 µM
17,Cn1c2ccccc2c(=O)c2cccc(C(=O)NC(CCCN=C(N)N)C(=O)O)c21 (stereo not given),> 100 µM
18,C=C1CN2CC(=C)CN(C1)CS(=O)(=O)N1CC(=C)CN(CC(=C)C1)S(=O)(=O)N1CC(=C)CN(CC(=C)C1)S(=O)(=O)C2,> 100 µM
19,O=C(O)/C=c1/c2ccccc2n2nc3ccccc3c12,80.7 µM
20,Nc1ccc(S2(c3ccc(N)cc3)C=C(c3ccccc3)C(c3ccccc3)=C2)cc1,> 100 µM
21,COc1ccc2c(cnc3c4cc(OC)c(OC)cc4ccc23)c1,> 100 µM
22,O=C1C(=Cc2ccccc2O)N=C(c2ccccc2)N1n1c(-c2ccccc2)nc2ccccc2c1=O,98.4 µM
23,CC(C)=CCNc1ncnc2c1ncn2CCC#N,> 100 µM

# Tested on: SF-539 CNS
# Experiment: inhibition of tumour cell growth, NCI panel, 48 h
row,SMILES,TGI
1,C=C1C(=O)C=C[C@]2(C)CC[C@H]3C(=C)C(=O)O[C@@H]3[C@@H]12,2.61 µM
2,COc1ccc(C2OC(c3ccncc3)=NN2C)cc1OC (stereo not given),> 100 µM
3,COC1C=COC2(C)Oc3c(C)c(O)c4c(O)c(c(C5SCCS5)c(O)c4c3C2=O)NC(=O)C(C)=C/C=C\C(C)C2OC(C)(C)OC(C2C)C(C)C(OC(C)=O)C1C (stereo not given),86.4 µM
4,CC(C)(C)C(=O)CC1=Nc2ccccc2SC1(O)CC(=O)C(C)(C)C (stereo not given),61.3 µM
5,N#CC1=C(N)N(c2ccccc2)C(c2ccccc2)C1(C#N)C#N (stereo not given),32.5 µM
6,CCOC(=O)NC(Nc1ccc([N+](=O)[O-])cc1)(C(F)(F)F)C(F)(F)F,> 100 µM
7,CSc1ncnc2c1ncn2CCC#N,> 100 µM
8,COc1cccc(/C=N/n2c(C)n[nH]c2=O)c1,> 100 µM
9,CC1CCCC(CC(=O)O)(CC(=O)O)C1 (stereo not given),> 100 µM
10,CC(=O)OCC1OC(n2c3c(cc(C#N)c2=S)CCCCC3)C(OC(C)=O)C(OC(C)=O)C1OC(C)=O (stereo not given),> 100 µM
11,CCC(=O)ONC(=O)Cn1ccc([N+](=O)[O-])n1,> 100 µM
12,O=C(O)c1ccc(OCc2nc3cc(C(F)(F)F)ccc3nc2-c2ccccc2)cc1,76.8 µM
13,COc1ccc(/C=C2\N=C(SC)NC2=O)cc1,> 100 µM
14,CC(C)NC(=O)OCCN=c1c2ccccc2ccc2ccccc12,> 100 µM
15,O=c1oc2ccc([N+](=O)[O-])cc2c(Nc2ccc3c(c2)Oc2ccccc2O3)c1[N+](=O)[O-],61.1 µM
16,On1c(-c2ccccc2)nc2ccccc2c1=S,> 100 µM
17,Cn1c2ccccc2c(=O)c2cccc(C(=O)NC(CCCN=C(N)N)C(=O)O)c21 (stereo not given),> 100 µM
18,C=C1CN2CC(=C)CN(C1)CS(=O)(=O)N1CC(=C)CN(CC(=C)C1)S(=O)(=O)N1CC(=C)CN(CC(=C)C1)S(=O)(=O)C2,39.9 µM
19,O=C(O)/C=c1/c2ccccc2n2nc3ccccc3c12,73.5 µM
20,Nc1ccc(S2(c3ccc(N)cc3)C=C(c3ccccc3)C(c3ccccc3)=C2)cc1,> 100 µM
21,COc1ccc2c(cnc3c4cc(OC)c(OC)cc4ccc23)c1,> 100 µM
22,O=C1C(=Cc2ccccc2O)N=C(c2ccccc2)N1n1c(-c2ccccc2)nc2ccccc2c1=O,50 µM
23,CC(C)=CCNc1ncnc2c1ncn2CCC#N,> 100 µM

# Tested on: MDA-MB-435
# Experiment: inhibition of tumour cell growth, NCI panel, 48 h
row,SMILES,TGI
1,C=C1C(=O)C=C[C@]2(C)CC[C@H]3C(=C)C(=O)O[C@@H]3[C@@H]12,3.21 µM
2,COc1ccc(C2OC(c3ccncc3)=NN2C)cc1OC (stereo not given),> 100 µM
3,COC1C=COC2(C)Oc3c(C)c(O)c4c(O)c(c(C5SCCS5)c(O)c4c3C2=O)NC(=O)C(C)=C/C=C\C(C)C2OC(C)(C)OC(C2C)C(C)C(OC(C)=O)C1C (stereo not given),47.9 µM
4,CC(C)(C)C(=O)CC1=Nc2ccccc2SC1(O)CC(=O)C(C)(C)C (stereo not given),64.5 µM
5,N#CC1=C(N)N(c2ccccc2)C(c2ccccc2)C1(C#N)C#N (stereo not given),35.6 µM
6,CCOC(=O)NC(Nc1ccc([N+](=O)[O-])cc1)(C(F)(F)F)C(F)(F)F,49.1 µM
7,CSc1ncnc2c1ncn2CCC#N,> 100 µM
8,COc1cccc(/C=N/n2c(C)n[nH]c2=O)c1,> 100 µM
9,CC1CCCC(CC(=O)O)(CC(=O)O)C1 (stereo not given),> 100 µM
10,CC(=O)OCC1OC(n2c3c(cc(C#N)c2=S)CCCCC3)C(OC(C)=O)C(OC(C)=O)C1OC(C)=O (stereo not given),> 100 µM
11,CCC(=O)ONC(=O)Cn1ccc([N+](=O)[O-])n1,> 100 µM
12,O=C(O)c1ccc(OCc2nc3cc(C(F)(F)F)ccc3nc2-c2ccccc2)cc1,> 100 µM
13,COc1ccc(/C=C2\N=C(SC)NC2=O)cc1,> 100 µM
14,CC(C)NC(=O)OCCN=c1c2ccccc2ccc2ccccc12,> 100 µM
15,O=c1oc2ccc([N+](=O)[O-])cc2c(Nc2ccc3c(c2)Oc2ccccc2O3)c1[N+](=O)[O-],> 100 µM
16,On1c(-c2ccccc2)nc2ccccc2c1=S,> 100 µM
17,Cn1c2ccccc2c(=O)c2cccc(C(=O)NC(CCCN=C(N)N)C(=O)O)c21 (stereo not given),> 100 µM
18,C=C1CN2CC(=C)CN(C1)CS(=O)(=O)N1CC(=C)CN(CC(=C)C1)S(=O)(=O)N1CC(=C)CN(CC(=C)C1)S(=O)(=O)C2,> 100 µM
19,O=C(O)/C=c1/c2ccccc2n2nc3ccccc3c12,> 100 µM
20,Nc1ccc(S2(c3ccc(N)cc3)C=C(c3ccccc3)C(c3ccccc3)=C2)cc1,> 71.3 µM
21,COc1ccc2c(cnc3c4cc(OC)c(OC)cc4ccc23)c1,> 100 µM
22,O=C1C(=Cc2ccccc2O)N=C(c2ccccc2)N1n1c(-c2ccccc2)nc2ccccc2c1=O,> 100 µM
23,CC(C)=CCNc1ncnc2c1ncn2CCC#N,> 100 µM

# Tested on: NCI-H460 lung
# Experiment: inhibition of tumour cell growth, NCI panel, 48 h
row,SMILES,TGI
1,C=C1C(=O)C=C[C@]2(C)CC[C@H]3C(=C)C(=O)O[C@@H]3[C@@H]12,33.1 µM
2,COc1ccc(C2OC(c3ccncc3)=NN2C)cc1OC (stereo not given),> 100 µM
3,COC1C=COC2(C)Oc3c(C)c(O)c4c(O)c(c(C5SCCS5)c(O)c4c3C2=O)NC(=O)C(C)=C/C=C\C(C)C2OC(C)(C)OC(C2C)C(C)C(OC(C)=O)C1C (stereo not given),63.2 µM
4,CC(C)(C)C(=O)CC1=Nc2ccccc2SC1(O)CC(=O)C(C)(C)C (stereo not given),38.5 µM
